{
  "source": "ChEMBL document CHEMBL5038592",
  "about": "“Discovery of MK-8153, a Potent and Selective ROMK Inhibitor and Novel Diuretic/Natriuretic” (J Med Chem, 2021)",
  "key": {"[1]": {"test": "Oral bioavailability in rhesus monkey at 2 mg/kg", "assay_type": "ADME, organism-based, Macaca mulatta", "conditions": "in vivo"}, "[2]": {"test": "Inhibition of Kir2.1 (unknown origin)", "parameters": "species or system Homo sapiens"}, "[3]": {"test": "Effective half life in Wistar Han rat at 2 mg/kg, po or 1 mg/kg, iv", "assay_type": "ADME, organism-based", "conditions": "in vivo, read-out: t1/2eff (converted)"}, "[4]": {"test": "Drug metabolism in human hepatocytes assessed as metabolite formation by LC/MS analysis", "assay_type": "ADME, cell-based, Hepatocyte"}, "Rattus norvegicus [5]": {"system": "Rattus norvegicus", "test": "Diuretic activity in orally dosed spontaneous hypertensive rat assessed as urine volume treated for 3 days measured after 0 to 24 hrs of dosing", "assay_type": "functional, organism-based", "conditions": "time 3.0 day"}, "Rattus norvegicus [6]": {"system": "Rattus norvegicus", "test": "Diuretic activity in orally dosed spontaneous hypertensive rat assessed as increase in sodium excretion treated for 3 days measured after 0 to 24 hrs of dosing", "assay_type": "functional, organism-based", "conditions": "time 3.0 day"}, "[7]": {"test": "Clearance in rhesus monkey at 2 mg/kg, po or 1 mg/kg, iv", "assay_type": "ADME, organism-based, Macaca mulatta", "conditions": "in vivo"}, "[8]": {"test": "Drug metabolism in Beagle dog hepatocytes assessed as metabolite formation by LC/MS analysis", "assay_type": "ADME, cell-based, Canis lupus familiaris, Hepatocyte"}, "[9]": {"test": "Toxicity in rat assessed as change in body weight at 5 to 300 mg/kg treated for 7 days", "assay_type": "organism-based", "conditions": "in vivo, 168 h, dose 5-300 mg/kg, time 7 day"}, "[10]": {"target": "Sodium channel protein type 5 subunit alpha (Homo sapiens, UniProt Q14524)", "sequence (Q14524 whole entry)": "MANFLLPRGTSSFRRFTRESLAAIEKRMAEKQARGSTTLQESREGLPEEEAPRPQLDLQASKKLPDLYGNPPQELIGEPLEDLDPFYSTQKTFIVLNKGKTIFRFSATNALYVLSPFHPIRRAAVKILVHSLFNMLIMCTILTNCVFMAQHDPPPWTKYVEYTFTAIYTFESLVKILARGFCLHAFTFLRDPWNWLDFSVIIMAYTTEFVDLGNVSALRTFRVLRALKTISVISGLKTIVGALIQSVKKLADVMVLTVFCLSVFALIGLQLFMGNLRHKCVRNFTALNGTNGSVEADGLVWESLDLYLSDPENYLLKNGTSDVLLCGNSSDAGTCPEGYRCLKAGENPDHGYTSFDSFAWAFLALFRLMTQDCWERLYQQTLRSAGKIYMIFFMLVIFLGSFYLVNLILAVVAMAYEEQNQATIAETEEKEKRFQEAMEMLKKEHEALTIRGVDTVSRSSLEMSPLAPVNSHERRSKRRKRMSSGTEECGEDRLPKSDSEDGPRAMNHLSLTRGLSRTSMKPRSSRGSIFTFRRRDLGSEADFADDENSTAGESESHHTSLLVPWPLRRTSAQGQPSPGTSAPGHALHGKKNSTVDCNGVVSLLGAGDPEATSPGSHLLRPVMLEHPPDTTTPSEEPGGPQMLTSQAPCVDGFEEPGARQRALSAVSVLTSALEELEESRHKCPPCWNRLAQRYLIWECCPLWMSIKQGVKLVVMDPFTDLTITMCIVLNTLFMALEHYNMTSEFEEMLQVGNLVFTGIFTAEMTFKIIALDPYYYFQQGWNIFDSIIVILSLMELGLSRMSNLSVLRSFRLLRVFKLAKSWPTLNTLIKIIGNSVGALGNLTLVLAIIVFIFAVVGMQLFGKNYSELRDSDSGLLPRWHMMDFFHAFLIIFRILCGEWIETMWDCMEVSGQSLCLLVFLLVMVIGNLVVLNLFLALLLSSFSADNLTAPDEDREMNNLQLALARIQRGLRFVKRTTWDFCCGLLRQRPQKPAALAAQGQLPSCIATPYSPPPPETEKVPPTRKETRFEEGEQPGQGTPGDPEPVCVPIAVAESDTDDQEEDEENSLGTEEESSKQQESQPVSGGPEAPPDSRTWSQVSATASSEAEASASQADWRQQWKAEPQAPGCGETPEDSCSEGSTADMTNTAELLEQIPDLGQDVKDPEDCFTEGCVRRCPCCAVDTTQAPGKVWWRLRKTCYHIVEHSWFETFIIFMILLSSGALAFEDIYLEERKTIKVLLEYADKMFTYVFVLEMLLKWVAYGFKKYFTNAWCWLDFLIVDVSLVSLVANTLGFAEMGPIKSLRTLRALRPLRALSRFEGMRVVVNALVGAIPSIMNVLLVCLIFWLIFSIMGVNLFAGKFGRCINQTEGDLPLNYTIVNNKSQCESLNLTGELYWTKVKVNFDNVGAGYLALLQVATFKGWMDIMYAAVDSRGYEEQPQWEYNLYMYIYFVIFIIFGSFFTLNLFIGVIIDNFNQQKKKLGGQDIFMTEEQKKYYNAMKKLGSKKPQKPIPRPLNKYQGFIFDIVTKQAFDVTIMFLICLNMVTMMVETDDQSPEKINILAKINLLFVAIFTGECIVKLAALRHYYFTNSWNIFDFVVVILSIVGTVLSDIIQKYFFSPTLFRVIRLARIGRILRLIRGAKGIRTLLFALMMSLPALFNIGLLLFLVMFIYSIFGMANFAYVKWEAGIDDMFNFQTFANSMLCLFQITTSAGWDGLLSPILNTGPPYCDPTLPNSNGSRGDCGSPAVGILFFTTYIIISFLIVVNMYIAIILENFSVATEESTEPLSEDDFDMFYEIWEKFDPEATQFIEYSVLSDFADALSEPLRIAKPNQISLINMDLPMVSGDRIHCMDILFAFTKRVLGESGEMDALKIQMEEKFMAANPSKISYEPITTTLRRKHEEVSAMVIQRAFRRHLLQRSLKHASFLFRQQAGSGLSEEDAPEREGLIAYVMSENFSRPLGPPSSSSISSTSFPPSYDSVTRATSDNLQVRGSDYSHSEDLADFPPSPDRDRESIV", "test": "Inhibition of Nav1.5 (unknown origin)"}, "[11]": {"test": "Volume of distribution at steady state in Wistar Han rat at 2 mg/kg, po or 1 mg/kg, iv", "assay_type": "ADME, organism-based", "conditions": "in vivo, read-out: Vdss"}, "[12]": {"test": "Oral bioavailability in Beagle dog at 2 mg/kg", "assay_type": "ADME, organism-based, Canis lupus familiaris", "conditions": "in vivo"}, "Cytochrome P450 2D6": {"target": "Cytochrome P450 2D6 (Homo sapiens, UniProt P10635)", "sequence (P10635 whole entry)": "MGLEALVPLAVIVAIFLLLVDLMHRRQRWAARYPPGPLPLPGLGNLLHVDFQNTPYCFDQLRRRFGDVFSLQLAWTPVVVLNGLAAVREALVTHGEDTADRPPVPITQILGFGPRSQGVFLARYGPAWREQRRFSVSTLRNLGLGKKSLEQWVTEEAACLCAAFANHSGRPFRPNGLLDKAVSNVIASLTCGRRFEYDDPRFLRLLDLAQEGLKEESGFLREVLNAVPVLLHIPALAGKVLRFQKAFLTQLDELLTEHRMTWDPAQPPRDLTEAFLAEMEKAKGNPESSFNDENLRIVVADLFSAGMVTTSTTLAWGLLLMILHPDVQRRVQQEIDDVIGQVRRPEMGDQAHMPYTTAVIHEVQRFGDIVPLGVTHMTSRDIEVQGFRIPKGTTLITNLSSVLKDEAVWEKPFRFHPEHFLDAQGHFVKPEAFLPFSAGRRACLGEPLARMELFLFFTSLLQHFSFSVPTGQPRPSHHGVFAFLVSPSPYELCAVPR", "test": "Inhibition of CYP2D6 (unknown origin)"}, "[13]": {"test": "Cmax in Wistar Han rat at 2 mg/kg, po or 1 mg/kg, iv", "assay_type": "ADME, organism-based", "parameters": "dose 2 mg/kg", "conditions": "in vivo"}, "[14]": {"test": "Toxicity in rat assessed as histological changes at 5 to 300 mg/kg treated for 7 days", "assay_type": "organism-based", "conditions": "in vivo, 168 h, dose 5-300 mg/kg, time 7 day"}, "[15]": {"test": "Metabolic stability in Beagle dog hepatocytes by LC/MS analysis", "assay_type": "ADME, cell-based, Canis lupus familiaris, Hepatocyte"}, "[16]": {"target": "T1, ATP-sensitive inward rectifier potassium channel 10 (Homo sapiens, UniProt P78508)", "T1 sequence (P78508 whole entry)": "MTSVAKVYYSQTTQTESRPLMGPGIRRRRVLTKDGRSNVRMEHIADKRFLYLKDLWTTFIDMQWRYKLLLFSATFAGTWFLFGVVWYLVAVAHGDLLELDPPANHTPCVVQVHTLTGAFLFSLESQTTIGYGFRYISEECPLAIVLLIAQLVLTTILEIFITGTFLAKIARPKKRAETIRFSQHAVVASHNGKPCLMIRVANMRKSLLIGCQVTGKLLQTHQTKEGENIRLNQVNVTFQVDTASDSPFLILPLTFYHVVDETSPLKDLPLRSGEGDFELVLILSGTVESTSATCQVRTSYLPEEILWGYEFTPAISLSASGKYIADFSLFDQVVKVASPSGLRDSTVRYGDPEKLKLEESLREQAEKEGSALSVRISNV", "test": "Inhibition of Kir4.1 (unknown origin)"}, "[17]": {"test": "Toxicity in dog assessed as tolerance at 0.3 to 6 mg/kg treated for 7 days", "assay_type": "organism-based, Canis lupus familiaris", "conditions": "in vivo, 168 h, dose 0.3-6 mg/kg, time 7 day"}, "[18]": {"test": "Metabolic stability in Wistar Han rat liver microsomes by LC/MS analysis", "assay_type": "ADME, Microsome"}, "[19]": {"test": "Cmax in Beagle dog at 2 mg/kg, po or 1 mg/kg, iv", "assay_type": "ADME, organism-based, Canis lupus familiaris", "parameters": "dose 2 mg/kg", "conditions": "in vivo"}, "[20]": {"test": "Metabolic stability in human liver microsomes by LC/MS analysis", "assay_type": "ADME, Microsome"}, "[21]": {"target": "T2, Inward rectifier potassium channel 13 (Homo sapiens, UniProt O60928)", "T2 sequence (O60928 whole entry)": "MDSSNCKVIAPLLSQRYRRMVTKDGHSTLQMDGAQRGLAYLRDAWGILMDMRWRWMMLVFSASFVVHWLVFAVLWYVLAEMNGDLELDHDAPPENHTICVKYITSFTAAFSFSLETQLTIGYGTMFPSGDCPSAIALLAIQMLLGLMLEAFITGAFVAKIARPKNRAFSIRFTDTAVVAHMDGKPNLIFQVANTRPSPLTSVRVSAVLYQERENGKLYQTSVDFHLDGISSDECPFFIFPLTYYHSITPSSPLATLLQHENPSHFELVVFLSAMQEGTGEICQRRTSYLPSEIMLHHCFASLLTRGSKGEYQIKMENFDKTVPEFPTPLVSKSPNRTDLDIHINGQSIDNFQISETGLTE", "test": "Inhibition of Kir7.1 (unknown origin)"}, "[22]": {"test": "Oral bioavailability in Wistar Han rat at 2 mg/kg", "assay_type": "ADME, organism-based", "conditions": "in vivo"}, "[23]": {"test": "Effective half life in Beagle dog at 2 mg/kg, po or 1 mg/kg, iv", "assay_type": "ADME, organism-based, Canis lupus familiaris", "conditions": "in vivo, read-out: t1/2eff (converted)"}, "[24]": {"test": "Drug metabolism in Wistar Han rat hepatocytes assessed as metabolite formation by LC/MS analysis", "assay_type": "ADME, cell-based, Hepatocyte"}, "[25]": {"test": "AUC (0 to infinity) in Wistar Han rat at 2 mg/kg, po or 1 mg/kg, iv", "assay_type": "ADME, organism-based", "parameters": "dose 2 mg/kg", "conditions": "in vivo"}, "[26]": {"test": "Toxicity in rat assessed as tolerance at 5 to 300 mg/kg treated for 7 days", "assay_type": "organism-based", "conditions": "in vivo, 168 h, dose 5-300 mg/kg, time 7 day"}, "[27]": {"test": "Metabolic stability in Wistar Han rat hepatocytes by LC/MS analysis", "assay_type": "ADME, cell-based, Hepatocyte"}, "Rattus norvegicus [28]": {"system": "Rattus norvegicus", "test": "Diuretic activity in orally dosed spontaneous hypertensive rat assessed as urine volume treated for 3 days measured after 0 to 4 hrs of dosing", "assay_type": "functional, organism-based", "conditions": "time 3.0 day"}, "[29]": {"test": "Tmax in Wistar Han rat at 2 mg/kg, po or 1 mg/kg, iv", "assay_type": "ADME, organism-based", "conditions": "in vivo"}, "[30]": {"test": "Volume of distribution at steady state in rhesus monkey at 2 mg/kg, po or 1 mg/kg, iv", "assay_type": "ADME, organism-based, Macaca mulatta", "conditions": "in vivo, read-out: Vdss"}, "Rattus norvegicus [31]": {"system": "Rattus norvegicus", "test": "Antihypertensive activity in spontaneous hypertensive rat model assessed as decrease in systolic blood pressure at 1 mg/kg, po QD observed for 3 days", "assay_type": "functional, organism-based", "conditions": "time 3.0 day"}, "[32]": {"test": "Clearance in Wistar Han rat at 2 mg/kg, po or 1 mg/kg, iv", "assay_type": "ADME, organism-based", "conditions": "in vivo"}, "[33]": {"test": "Metabolic stability in human hepatocytes by LC/MS analysis", "assay_type": "ADME, cell-based, Hepatocyte"}, "[34]": {"test": "Metabolic stability in rhesus monkey liver microsomes by LC/MS analysis", "assay_type": "ADME, Macaca mulatta, Microsome"}, "[35]": {"test": "Metabolic stability in Beagle dog liver microsomes by LC/MS analysis", "assay_type": "ADME, Canis lupus familiaris, Microsome"}, "[36]": {"test": "Terminal half life in rhesus monkey at 2 mg/kg, po or 1 mg/kg, iv", "assay_type": "ADME, organism-based, Macaca mulatta", "conditions": "in vivo, read-out: beta t1/2 (converted)"}},
  "note": "The source made the active and inactive calls. The rule behind the calls is not given here.",
  "data": [
    {"smiles": "CC1=C(N2CCC3(CCN(C[C@H](O)c4ccc5c(c4C)COC5=O)CC3)C2=O)COC1=O", "values": [
      {"measurement": "bioavailability", "setting": "[1]", "result": 3.4, "unit": "%"},
      {"measurement": "IC50", "setting": "[2]", "result": "> 100", "unit": "µM"},
      {"measurement": "half-life", "setting": "[3]", "result": 1.8, "unit": "h"},
      {"measurement": "Drug metabolism", "setting": "[4]", "result": "Metabolite_Notdetected"},
      {"measurement": "Activity", "setting": "Rattus norvegicus [5]", "result": "Dose-Dependent Effect"},
      {"measurement": "Activity", "setting": "Rattus norvegicus [6]", "result": "Dose-Dependent Effect"},
      {"measurement": "clearance", "setting": "[7]", "result": 58.3, "unit": "mL/min/kg"},
      {"measurement": "Drug metabolism", "setting": "[8]", "result": "Metabolite_Notdetected"},
      {"measurement": "Activity", "setting": "[9]", "result": "Non-Toxic"},
      {"measurement": "IC50", "setting": "[10]", "result": "> 30", "unit": "µM"},
      {"measurement": "Vd", "setting": "[11]", "result": 14.7, "unit": "L/kg"},
      {"measurement": "bioavailability", "setting": "[12]", "result": 100, "unit": "%"},
      {"measurement": "IC50", "setting": "Cytochrome P450 2D6", "result": "> 50", "unit": "µM"},
      {"measurement": "Cmax", "setting": "[13]", "result": 310, "unit": "nM"},
      {"measurement": "Activity", "setting": "[14]", "result": "Non-Toxic"},
      {"measurement": "Stability", "setting": "[15]", "result": "Stable"},
      {"measurement": "IC50", "setting": "[16]", "result": "> 100", "unit": "µM"},
      {"measurement": "Activity", "setting": "[17]", "result": "Non-Toxic"},
      {"measurement": "Stability", "setting": "[18]", "result": "Stable"},
      {"measurement": "Cmax", "setting": "[19]", "result": 2400, "unit": "nM"},
      {"measurement": "Stability", "setting": "[20]", "result": "Stable"},
      {"measurement": "IC50", "setting": "[21]", "result": "> 100", "unit": "µM"},
      {"measurement": "bioavailability", "setting": "[22]", "result": 53, "unit": "%"},
      {"measurement": "half-life", "setting": "[23]", "result": 6.8, "unit": "h"},
      {"measurement": "Drug metabolism", "setting": "[24]", "result": "Metabolite_Notdetected"},
      {"measurement": "AUC(0-inf)", "setting": "[25]", "result": 1.4, "unit": "µM·h"},
      {"measurement": "Activity", "setting": "[26]", "result": "Non-Toxic"},
      {"measurement": "Stability", "setting": "[27]", "result": "Stable"},
      {"measurement": "Activity", "setting": "Rattus norvegicus [28]", "result": "Dose-Dependent Effect"},
      {"measurement": "Tmax", "setting": "[29]", "result": 0.5, "unit": "h"},
      {"measurement": "Vd", "setting": "[30]", "result": 7.9, "unit": "L/kg"},
      {"measurement": "Activity", "setting": "Rattus norvegicus [31]", "result": "Active"},
      {"measurement": "clearance", "setting": "[32]", "result": 29.4, "unit": "mL/min/kg"},
      {"measurement": "Stability", "setting": "[33]", "result": "Stable"},
      {"measurement": "Stability", "setting": "[34]", "result": "Stable"},
      {"measurement": "Stability", "setting": "[35]", "result": "Stable"},
      {"measurement": "half-life", "setting": "[36]", "result": 3.3, "unit": "h"}
    ]}
  ]
}
